US10188110B2 (TELEFLEX MEDICAL INCORPORATED, priority 2010, dated 2019)
Where a name gives a salt, the structure may show the parent alone. Read-outs that look alike come from different tables or passages of the source.

Assays:
[1] = test system: Enterobacter aerogenes (E. aerogenes); test: Kirby-Bauer disk diffusion in HCl agar; type: cell-based; settings: for E. aerogenes Avg. ZOI: 5-FU 256 ppm
Description: (§1) Agar plates and cultures of S. aureus, P. aeruginosa, and Enterobacter aerogenes (E. aerogenes) were set up as described in EXPERIMENT 8. […] Cultures were diluted to 1×10^8 CFU/ml.
(§2) From each of the test solution, 20 μL was then dispensed over the Kirby Bauer diffusion disks. The disks were air dried for five minutes and using forceps applied over the agar plates. Plates were then incubated for 24 hours at 37° C. Subsequently the zones of inhibition were measured, in millimeters (mm) using calipers. Each test was run in triplicate.

S. aureus = settings: for S. Aureus Avg. ZOI, HCl Alone: Table 8
Description: as §1, §2

[2] = test system: S. aureus and P. aeruginosa
Excerpt: One centimeter long catheter segments were cut from Multi-lumen Central Venous Catheters (CVC) from Rifampin and Minocycline impregnated CVCs (Rif/Mino). Cultures of S. aureus and P. aeruginosa were started in Muller Hinton Broth. For each organism, concentration of the inoculum was adjusted to 1×10^8 CFU/ml using 0.5 McFarland standard. […] Plates were sneaked with a single organism using a sterile cotton applicator that was dipped into the broth culture. Using sterile forceps, 1 cm long catheter segments from the control and Rif/Mino catheters were vertically inserted into the agar. Plates were then incubated for 24 hours at 37° C. Each test was run in triplicate. Subsequently the zones of inhibition (ZOI) were measured, in millimeters (mm) using calipers and the three ZOI measurements for each test were averaged.

[3] = test system: S. aureus and P. aeruginosa; settings: HCl Conc. 0.001 M, Table 7
Description: as §1, §2

Structure (SMILES) | E. aerogenes Avg. ZOI ([1]; HCl Conc. 0 M) [mm] | E. aerogenes Avg. ZOI ([1]; HCl Conc. 0.01 M) [mm] | effect of HCl on inhibition ([1]; HCl concentration of 0.01 M) | S. Aureus Avg. ZOI (S. aureus; 5-FU 8 ppm, HCl Conc. 0 M) [mm] | S. Aureus Avg. ZOI (S. aureus; 5-FU 8 ppm, HCl Conc. 0.001 M) [mm] | S. Aureus Avg. ZOI (S. aureus; 5-FU 8 ppm, HCl Conc. 0.01 M) [mm] | S. Aureus Avg. ZOI (S. aureus; 5-FU 16 ppm, HCl Conc. 0 M) [mm] | S. Aureus Avg. ZOI (S. aureus; 5-FU 16 ppm, HCl Conc. 0.001 M) [mm] | S. Aureus Avg. ZOI (S. aureus; 5-FU 16 ppm, HCl Conc. 0.01 M) [mm] | E. aerogenes Avg. ZOI, HCl Alone ([1]; HCl Conc. 0.01 M, Table 9) [mm] | Avg. ZOI HCl Alone ([2]; HCl Conc. 0.001 M, Table 6) [mm] | highest HCl concentration that allowed formation of a confluent lawn of organisms ([2]; Muller Hinton Agar plates) [M] | S. Aureus Avg. ZOI, HCl Alone (S. aureus; HCl Conc. 0.001 M) [mm] | S. Aureus Avg. ZOI, HCl Alone (S. aureus; HCl Conc. 0.01 M) [mm] | Avg. ZOI HCl Alone [3] [mm]
O=c1[nH]cc(F)c(=O)[nH]1 [5-FU, 5-Fluorouracil] | 16.15 | 18.95 | enhanced inhibition | 0.0 | 0.0 | 13.8 | 10.0 | 11.5 | 21.4 |  |  |  |  |  | 
Cl [HCl, hydrochloric acid] |  |  |  |  |  |  |  |  |  | 0 | 0 | 0.01 | 0 | 0 | 0
